# Tested on: Orius laevigatus
# Assay: Safety to beneficial species: test on Orius laevigatus on treated french bean leaf discs
# Type: in vivo
# Settings: Orius laevigatus adults; for Corrected Mortality (%) 2 DAI: 2 days after infestation; for Corrected Mortality (%) 4 DAI: 4 days after infestation
# Experimental: Phaseolus vulgaris var. Fulvio (french bean) plants were reduced to one leaf. With the leaves held in a horizontal position, a track sprayer was used to treat the plants at a rate corresponding to […]. Once dry, leaf discs were collected from the plants and placed treated side up in petri dishes containing 1% water agar.
# A paper triangle was added for shelter, and a suitable amount of Ephestia eggs were added as a food supply. Five (5) Orius laevigatus (predatory bug, Syngenta Bioline) adults were added and the dishes closed with a cotton filter and perforated plastic lid. The dishes were incubated in a climate chamber at 25° C., 75% relative humidity, 16:8 h light/dark regime.
# Six replicates were provided for each treatment and concentration level. The number of living and dead Orius laevigatus were counted two and four days after infestation (DAI). At the day two evaluation the food supply was replenished.
Compound,Corrected Mortality (%) 2 DAI (50 ppm),Corrected Mortality (%) 4 DAI (50 ppm),Corrected Mortality (%) 2 DAI (100 ppm),Corrected Mortality (%) 4 DAI (100 ppm),Corrected Mortality (%) 2 DAI (200 ppm),Corrected Mortality (%) 4 DAI (200 ppm)
N#Cc1cncc([C@]2(C#N)C[C@H]3CC[C@@H](C2)N3CC(F)(F)F)c1 [Compound 1.085],0%,9%,0%,9%,0%,22%
"O=[N+]([O-])NC1=NCCN1Cc1ccc(Cl)nc1 [Imidacloprid, reference compound]",11%,30%,43%,65%,75%,100%
"C#CCN1[C@@H]2CC[C@H]1C[C@](C#N)(c1cncc(C#N)c1)C2 [Compound 1.074, (1S,3S,5R)-3-(5-cyano-pyridin-3-yl)-8-prop-2-ynyl-8-aza-bicyclo[3.2.1]octane-3-carbonitrile]",4%,4%,0%,0%,7%,39%
